From ChEMBL document CHEMBL5705887, “Distinct concentration-dependent effects of the polo-like kinase 1-specific inhibitor GSK461364A, including differential effect on apoptosis” (Cancer Res, 2009)
Active and inactive are the calls of the source. The calls are words filed in the database; no cut-off is given here.

Key:
[1] = molecular target: Cytoplasmic tyrosine-protein kinase BMX (Homo sapiens) (UniProt P51813); assay: Inhibition of N-terminal his6-tagged recombinant human BMX expressed in baculovirus Sf21 insect cells at 10 uM relative to control
Raji [2] = assay: Antiproliferative activity against human Raji cells assessed as viable cell signal at maximum growth inhibition incubated for 72 hrs by celltiter-glo assay relative to control; assay type: functional
MX1 = assay: Antiproliferative activity against human MX1 cells assessed as of viable cell signal at minimum maximum cell growth incubated for 72 hrs by celltiter-glo assay relative to control; assay type: functional
T47D = assay: Antiproliferative activity against human T47D cells assessed as of viable cell signal at minimum maximum cell growth incubated for 72 hrs by celltiter-glo assay relative to control; assay type: functional
[3] = molecular target: Serine/threonine-protein kinase BRSK2 (Homo sapiens) (UniProt Q8IWQ3); assay: Inhibition of full length N-terminal his6-tagged recombinant human BRSK2 expressed in baculovirus Sf21 cells at 10 uM relative to control
OVCAR-3 = assay: Antiproliferative activity against human OVCAR-3 cells assessed as growth inhibition incubated for 72 hrs by celltiter-glo assay; assay type: functional
[4] = tested on: Fibroblast growth factor receptor 1 (Homo sapiens), P11362 [V561M]; assay: Inhibition of N-terminal his6-tagged recombinant human FGFR1 V561M mutant (456 to 765 residues) at 10 uM relative to control
HeLa = assay: Antiproliferative activity against human HeLa cells assessed as growth inhibition incubated for 72 hrs by celltiter-glo assay; assay type: functional
LoVo = assay: Antiproliferative activity against human LoVo cells assessed as of viable cell signal at minimum maximum cell growth incubated for 72 hrs by celltiter-glo assay relative to control; assay type: functional
MCF7 = assay: Antiproliferative activity against human MCF7 cells assessed as viable cell signal at maximum growth inhibition incubated for 72 hrs by celltiter-glo assay relative to control; assay type: functional
NCI-H460 = assay: Antiproliferative activity against human NCI-H460 cells assessed as viable cell signal at maximum growth inhibition incubated for 72 hrs by celltiter-glo assay relative to control; assay type: functional
ASPC1 = assay: Antiproliferative activity against human ASPC1 cells assessed as growth inhibition incubated for 72 hrs by celltiter-glo assay; assay type: functional
[5] = molecular target: Testis-specific serine/threonine-protein kinase 1 (Homo sapiens) (UniProt Q9BXA7); assay: Inhibition of full length his6-tagged recombinant human TSSK1 expressed in baculovirus Sf21 insect cells at 10 uM relative to control
Calu-3 [6] = assay: Antiproliferative activity against human Calu-3 cells assessed as of viable cell signal at minimum maximum cell growth incubated for 72 hrs by celltiter-glo assay relative to control; assay type: functional
SAOS-2 = assay: Antiproliferative activity against human SAOS-2 cells assessed as growth inhibition incubated for 72 hrs by celltiter-glo assay; assay type: functional
[7] = molecular target: Calcium/calmodulin-dependent protein kinase type II subunit gamma (Homo sapiens) (UniProt Q13555); assay: Inhibition recombinant human CAMKII-gamma at 10 uM relative to control
NCI-H1299 = assay: Antiproliferative activity against human NCI-H1299 cells assessed as viable cell signal at maximum growth inhibition incubated for 72 hrs by celltiter-glo assay relative to control; assay type: functional
MDA-MB-468 [8] = assay: Induction of mitotic arrest in human MDA-MB-468 cells assessed as effect on pHH3 level at 10 to 250 nmol/L incubated for 19 hrs by ELISA analysis; assay type: functional, cell-based; details: dose 10-250 nmol/L
Raji [9] = assay: Antiproliferative activity against human Raji cells assessed as of viable cell signal at minimum maximum cell growth incubated for 72 hrs by celltiter-glo assay relative to control; assay type: functional
MDA-MB-453 = assay: Antiproliferative activity against human MDA-MB-453 cells assessed as viable cell signal at maximum growth inhibition incubated for 72 hrs by celltiter-glo assay relative to control; assay type: functional
Calu-1 = assay: Antiproliferative activity against human Calu-1 cells assessed as growth inhibition incubated for 72 hrs by celltiter-glo assay; assay type: functional
ZR-75-1 [10] = assay: Antiproliferative activity against human ZR-75-1 cells assessed as growth inhibition incubated for 72 hrs by celltiter-glo assay; assay type: functional
PANC-1 = assay: Antiproliferative activity against human PANC-1 cells assessed as of viable cell signal at minimum maximum cell growth incubated for 72 hrs by celltiter-glo assay relative to control; assay type: functional
SK-BR-3 = assay: Antiproliferative activity against human SK-BR-3 cells assessed as viable cell signal at maximum growth inhibition incubated for 72 hrs by celltiter-glo assay relative to control; assay type: functional
NCI-H727 = assay: Antiproliferative activity against human NCI-H727 cells assessed as growth inhibition incubated for 72 hrs by celltiter-glo assay; assay type: functional
OVCAR-8 = assay: Antiproliferative activity against human OVCAR-8 cells assessed as growth inhibition incubated for 72 hrs by celltiter-glo assay; assay type: functional
COLO 205 = assay: Antiproliferative activity against human COLO 205 cells assessed as of viable cell signal at minimum maximum cell growth incubated for 72 hrs by celltiter-glo assay relative to control; assay type: functional
MDA-MB-468 [11] = assay: Antiproliferative activity against human MDA-MB-468 cells assessed as growth inhibition incubated for 72 hrs by celltiter-glo assay; assay type: functional
[12] = Antiproliferative activity against human A375P cells assessed as of viable cell signal at minimum maximum cell growth incubated for 72 hrs by celltiter-glo assay relative to control; assay type: functional
LNCaP = assay: Antiproliferative activity against human LNCaP cells assessed as of viable cell signal at minimum maximum cell growth incubated for 72 hrs by celltiter-glo assay relative to control; assay type: functional
[13] = molecular target: Serine/threonine-protein kinase pim-1 (Homo sapiens) (UniProt P11309); assay: Inhibition of full length N-terminal GST-tagged recombinant human PIM1 expressed in Escherichia coli at 10 uM relative to control
U2OS = assay: Antiproliferative activity against human U2OS cells assessed as of viable cell signal at minimum maximum cell growth incubated for 72 hrs by celltiter-glo assay relative to control; assay type: functional
SW480 = assay: Antiproliferative activity against human SW480 cells assessed as growth inhibition incubated for 72 hrs by celltiter-glo assay; assay type: functional
THP-1 = assay: Antiproliferative activity against human THP-1 cells assessed as growth inhibition incubated for 72 hrs by celltiter-glo assay; assay type: functional
[14] = tested on: Platelet-derived growth factor receptor alpha (Homo sapiens), P16234 [V561D]; assay: Inhibition of N-terminal his6-tagged recombinant human PDGFRA V561D mutant at 10 uM relative to control
SW-620 = assay: Antiproliferative activity against human SW620 cells assessed as viable cell signal at maximum growth inhibition incubated for 72 hrs by celltiter-glo assay relative to control; assay type: functional
ZR-75-1 [15] = assay: Antiproliferative activity against human ZR-75-1 cells assessed as of viable cell signal at minimum maximum cell growth incubated for 72 hrs by celltiter-glo assay relative to control; assay type: functional
SK-MEL3 = assay: Antiproliferative activity against human SK-MEL3 cells assessed as of viable cell signal at minimum maximum cell growth incubated for 72 hrs by celltiter-glo assay relative to control; assay type: functional
SK-OV-3 = assay: Antiproliferative activity against human SK-OV-3 cells assessed as of viable cell signal at minimum maximum cell growth incubated for 72 hrs by celltiter-glo assay relative to control; assay type: functional
Calu-3 [16] = assay: Antiproliferative activity against human Calu-3 cells assessed as viable cell signal at maximum growth inhibition incubated for 72 hrs by celltiter-glo assay relative to control; assay type: functional

Chain of Testis-specific serine/threonine-protein kinase 1 (Homo sapiens) (Q9BXA7 whole entry): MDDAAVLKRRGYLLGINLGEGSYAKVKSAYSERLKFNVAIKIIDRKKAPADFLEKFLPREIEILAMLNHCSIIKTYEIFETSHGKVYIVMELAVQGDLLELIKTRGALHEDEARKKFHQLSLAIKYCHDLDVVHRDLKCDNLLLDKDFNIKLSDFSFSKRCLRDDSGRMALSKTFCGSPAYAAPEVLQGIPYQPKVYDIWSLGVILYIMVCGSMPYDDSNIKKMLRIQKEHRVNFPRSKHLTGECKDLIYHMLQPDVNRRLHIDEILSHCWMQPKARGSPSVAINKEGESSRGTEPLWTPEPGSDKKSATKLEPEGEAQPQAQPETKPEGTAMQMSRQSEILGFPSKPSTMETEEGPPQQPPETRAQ
Chain of Calcium/calmodulin-dependent protein kinase type II subunit gamma (Homo sapiens) (Q13555 whole entry): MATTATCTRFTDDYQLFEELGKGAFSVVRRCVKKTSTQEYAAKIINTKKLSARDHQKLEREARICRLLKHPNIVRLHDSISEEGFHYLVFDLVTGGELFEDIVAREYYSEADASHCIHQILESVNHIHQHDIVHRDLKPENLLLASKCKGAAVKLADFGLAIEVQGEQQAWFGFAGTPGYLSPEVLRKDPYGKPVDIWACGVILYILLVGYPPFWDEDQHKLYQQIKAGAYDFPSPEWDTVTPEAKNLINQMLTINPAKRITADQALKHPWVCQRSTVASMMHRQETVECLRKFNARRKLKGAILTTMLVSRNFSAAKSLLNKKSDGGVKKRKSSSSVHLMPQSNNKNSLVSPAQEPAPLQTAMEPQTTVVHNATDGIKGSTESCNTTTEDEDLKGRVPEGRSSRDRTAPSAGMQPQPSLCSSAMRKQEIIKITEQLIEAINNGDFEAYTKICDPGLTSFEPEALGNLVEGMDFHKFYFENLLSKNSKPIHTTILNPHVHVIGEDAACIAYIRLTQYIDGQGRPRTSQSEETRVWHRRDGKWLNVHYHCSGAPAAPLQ
Chain of Fibroblast growth factor receptor 1 (Homo sapiens), P11362 [V561M] (P11362 whole entry V561M, the tested form may be a part): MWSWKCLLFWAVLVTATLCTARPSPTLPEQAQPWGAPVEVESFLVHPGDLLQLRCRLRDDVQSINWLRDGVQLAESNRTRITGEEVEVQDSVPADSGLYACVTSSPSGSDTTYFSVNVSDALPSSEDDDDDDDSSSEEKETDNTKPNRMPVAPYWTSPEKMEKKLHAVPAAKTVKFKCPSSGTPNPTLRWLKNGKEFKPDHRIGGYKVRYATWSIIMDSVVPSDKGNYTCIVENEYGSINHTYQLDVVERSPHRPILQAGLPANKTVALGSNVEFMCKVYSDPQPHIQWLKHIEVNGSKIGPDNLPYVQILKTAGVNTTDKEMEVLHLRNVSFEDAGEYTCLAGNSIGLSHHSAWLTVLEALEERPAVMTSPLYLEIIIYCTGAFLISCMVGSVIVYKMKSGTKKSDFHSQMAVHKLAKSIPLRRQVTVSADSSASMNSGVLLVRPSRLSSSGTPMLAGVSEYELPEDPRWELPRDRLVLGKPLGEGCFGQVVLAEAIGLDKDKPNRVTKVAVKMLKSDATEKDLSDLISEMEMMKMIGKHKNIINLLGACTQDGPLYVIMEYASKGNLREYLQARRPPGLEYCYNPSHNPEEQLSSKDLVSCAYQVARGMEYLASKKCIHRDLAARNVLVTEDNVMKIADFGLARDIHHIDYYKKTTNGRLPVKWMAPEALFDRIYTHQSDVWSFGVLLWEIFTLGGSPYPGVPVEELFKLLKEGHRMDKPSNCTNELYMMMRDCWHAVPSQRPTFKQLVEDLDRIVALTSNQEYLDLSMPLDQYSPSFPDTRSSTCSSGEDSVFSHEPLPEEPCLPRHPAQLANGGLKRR
Chain of Serine/threonine-protein kinase pim-1 (Homo sapiens) (P11309 whole entry, looked up): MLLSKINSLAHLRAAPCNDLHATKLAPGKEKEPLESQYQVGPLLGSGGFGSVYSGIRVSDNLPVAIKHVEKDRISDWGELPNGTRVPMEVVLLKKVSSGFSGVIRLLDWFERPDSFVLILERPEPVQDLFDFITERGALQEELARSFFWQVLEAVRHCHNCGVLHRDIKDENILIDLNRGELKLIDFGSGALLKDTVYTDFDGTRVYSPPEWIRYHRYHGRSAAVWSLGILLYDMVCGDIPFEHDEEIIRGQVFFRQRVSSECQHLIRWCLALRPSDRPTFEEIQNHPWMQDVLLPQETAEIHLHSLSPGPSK
Chain of Serine/threonine-protein kinase BRSK2 (Homo sapiens) (Q8IWQ3 whole entry): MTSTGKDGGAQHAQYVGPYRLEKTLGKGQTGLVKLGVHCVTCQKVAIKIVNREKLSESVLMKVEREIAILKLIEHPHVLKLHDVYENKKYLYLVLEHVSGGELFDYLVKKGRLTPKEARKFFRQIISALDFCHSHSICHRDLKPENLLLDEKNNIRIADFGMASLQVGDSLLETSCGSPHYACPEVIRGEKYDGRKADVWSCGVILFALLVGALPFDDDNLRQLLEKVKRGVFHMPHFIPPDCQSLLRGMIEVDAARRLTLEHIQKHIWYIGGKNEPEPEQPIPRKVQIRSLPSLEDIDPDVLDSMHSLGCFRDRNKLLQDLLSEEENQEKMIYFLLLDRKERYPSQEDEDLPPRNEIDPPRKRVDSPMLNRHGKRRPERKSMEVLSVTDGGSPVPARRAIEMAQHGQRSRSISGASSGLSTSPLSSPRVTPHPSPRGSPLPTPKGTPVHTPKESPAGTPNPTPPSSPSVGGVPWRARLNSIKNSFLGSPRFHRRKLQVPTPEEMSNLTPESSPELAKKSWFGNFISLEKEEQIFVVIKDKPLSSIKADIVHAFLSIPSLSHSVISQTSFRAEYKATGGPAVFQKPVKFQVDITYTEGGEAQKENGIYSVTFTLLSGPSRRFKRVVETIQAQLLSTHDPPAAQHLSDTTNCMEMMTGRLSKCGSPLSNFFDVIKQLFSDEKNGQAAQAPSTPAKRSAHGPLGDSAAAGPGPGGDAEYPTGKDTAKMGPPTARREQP
Chain of Cytoplasmic tyrosine-protein kinase BMX (Homo sapiens) (P51813 whole entry): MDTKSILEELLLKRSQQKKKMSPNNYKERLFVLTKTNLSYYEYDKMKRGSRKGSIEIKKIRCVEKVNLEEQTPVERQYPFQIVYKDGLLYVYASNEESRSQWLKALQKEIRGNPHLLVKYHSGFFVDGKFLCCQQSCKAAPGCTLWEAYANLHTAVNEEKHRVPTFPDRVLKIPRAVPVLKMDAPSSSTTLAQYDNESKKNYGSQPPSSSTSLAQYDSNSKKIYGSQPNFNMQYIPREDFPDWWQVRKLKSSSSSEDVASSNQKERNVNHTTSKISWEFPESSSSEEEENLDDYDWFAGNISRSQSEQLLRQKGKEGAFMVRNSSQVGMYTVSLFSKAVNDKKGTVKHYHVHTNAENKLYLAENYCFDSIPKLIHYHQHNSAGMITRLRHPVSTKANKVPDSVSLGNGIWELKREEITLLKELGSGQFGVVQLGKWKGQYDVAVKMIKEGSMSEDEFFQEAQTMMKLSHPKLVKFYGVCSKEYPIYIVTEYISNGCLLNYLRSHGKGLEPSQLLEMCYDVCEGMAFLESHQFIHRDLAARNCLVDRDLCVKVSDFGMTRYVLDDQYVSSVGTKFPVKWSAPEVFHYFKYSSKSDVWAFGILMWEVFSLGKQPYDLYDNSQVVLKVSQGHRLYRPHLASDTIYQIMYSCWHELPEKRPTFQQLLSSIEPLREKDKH
Chain of Platelet-derived growth factor receptor alpha (Homo sapiens), P16234 [V561D] (P16234 whole entry V561D): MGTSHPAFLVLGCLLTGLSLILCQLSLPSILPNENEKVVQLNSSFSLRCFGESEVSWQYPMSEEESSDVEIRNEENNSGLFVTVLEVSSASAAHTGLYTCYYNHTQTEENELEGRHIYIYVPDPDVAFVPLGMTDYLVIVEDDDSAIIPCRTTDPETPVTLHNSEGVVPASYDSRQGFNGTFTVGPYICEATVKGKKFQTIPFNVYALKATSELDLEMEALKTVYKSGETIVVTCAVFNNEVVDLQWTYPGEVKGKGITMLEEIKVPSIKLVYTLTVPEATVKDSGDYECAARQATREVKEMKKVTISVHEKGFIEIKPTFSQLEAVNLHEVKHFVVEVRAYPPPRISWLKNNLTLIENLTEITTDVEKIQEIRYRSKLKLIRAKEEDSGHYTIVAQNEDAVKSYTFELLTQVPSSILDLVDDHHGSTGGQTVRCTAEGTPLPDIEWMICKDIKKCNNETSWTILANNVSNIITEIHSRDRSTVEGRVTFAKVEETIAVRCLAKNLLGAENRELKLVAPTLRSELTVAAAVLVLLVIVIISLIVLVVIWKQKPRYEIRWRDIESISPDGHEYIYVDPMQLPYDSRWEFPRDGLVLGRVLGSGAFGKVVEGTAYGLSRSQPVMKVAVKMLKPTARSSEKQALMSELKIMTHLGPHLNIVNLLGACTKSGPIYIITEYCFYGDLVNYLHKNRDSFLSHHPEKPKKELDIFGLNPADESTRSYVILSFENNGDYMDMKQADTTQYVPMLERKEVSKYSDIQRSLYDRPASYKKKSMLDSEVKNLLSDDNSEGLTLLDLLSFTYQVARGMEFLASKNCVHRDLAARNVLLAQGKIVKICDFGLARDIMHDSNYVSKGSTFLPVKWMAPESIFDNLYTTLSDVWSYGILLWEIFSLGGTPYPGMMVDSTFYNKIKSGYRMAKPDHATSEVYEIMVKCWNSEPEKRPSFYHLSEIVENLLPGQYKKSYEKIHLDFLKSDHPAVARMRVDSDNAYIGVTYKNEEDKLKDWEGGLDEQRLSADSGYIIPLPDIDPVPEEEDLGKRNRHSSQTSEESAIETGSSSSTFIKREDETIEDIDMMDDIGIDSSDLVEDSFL

Work on `C[C@@H](Oc1cc(-n2cnc3ccc(CN4CCN(C)CC4)cc32)sc1C(N)=O)c1ccccc1C(F)(F)F` [GSK-461364] yielded an inhibition [1] of 57%, an Emax (Raji [2]) of 434% and an Emin (MX1) of 161.5%. It also gave an Emin (T47D) of 205%, an inhibition [3] of 79% and a GI50 (OVCAR-3) of 12.9 nM. It also gave an inhibition [4] of 62%, a GI50 (HeLa) of 21.8 nM and an Emin (LoVo) of 23.4%. It also gave an Emax (MCF7) of 429%, an Emax (NCI-H460) of 952% and a GI50 (ASPC1) of 22.3 nM. For the same molecule, the inhibition [5] was 61%, the Emin (Calu-3 [6]) was 115.6% and the GI50 (SAOS-2) was 14.2 nM. For the same molecule, the inhibition [7] was 84%, the Emax (NCI-H1299) was 495% and the Activity (MDA-MB-468 [8]) was “Active”. For the same molecule, the Emin (Raji [9]) was 5.1%, the Emax (MDA-MB-453) was 489% and the GI50 (Calu-1) was 186 nM. It also gave a GI50 (ZR-75-1 [10]) of 46.5 nM, an Emin (PANC-1) of 114.1% and an Emax (SK-BR-3) of 300%. The GI50 (NCI-H727) was 45.2 nM, the GI50 (OVCAR-8) was 20.4 nM and the Emin (COLO 205) was 102.6%. For the same molecule, the GI50 (MDA-MB-468 [11]) was 6.35 nM, the Emin [12] was 220.5% and the Emin (LNCaP) was 99.3%. The inhibition [13] was 90%, the Emin (U2OS) was 170.6% and the GI50 (SW480) was 130 nM. It also gave a GI50 (THP-1) of 11.8 nM, an inhibition [14] of 96% and an Emax (SW-620) of 634%. For the same molecule, the Emin (ZR-75-1 [15]) was 133.6%, the Emin (SK-MEL3) was 112.5% and the Emin (SK-OV-3) was 103.8%. It also gave an Emax (Calu-3 [16]) of 190%.
